Values of other authors in patent US20240408101A1, “COMPOSITION AND METHODS OF TREATMENT USING […] - ENHANCED SUPPLEMENTATION” (Xygenyx Inc., priority 2023, published 2024).
Where a SMILES comes first, the peptide text is derived from it.

Columns and labels:
[1] = mice
skin [2] = conditions: as penetration enhancer for transdermal drugs
[3] = test system: wide dynamic range neurons in the ventroposterolateral nucleus of the thalamus
[4] = in vivo
skin [5] = conditions: topical application, concentrations 0.5-5%
skin [6] = conditions: topical formulations, within four weeks of treatment
F2-isoprostane = conditions: large doses of 1600-3200 IU/day
[7] = compared to α-tocopherol taken as 1.0
[8] = dietary supplementation, doses up to 400 IU/day
[9] = dietary supplementation, doses up to 400 IU/day, controlled trials
[10] = in combination with 10-20 mg β-carotene and 400-500 mg vitamin C, doses around 400-500 IU
[11] = even when dietary intake occurs in equal portions
[12] = in vivo; remark: listed apart in the source

CC(CN)C(=O)O [L-BAIBA, L-beta-aminoisobutyric acid]
tolerated dose [1]: 10-100 mg/kg of bodyweight

CC(C)[C@@H]1CC[C@@H](C)C[C@H]1O [Menthol]
increase of transdermal drug uptake, factor (skin [2]): ≥ 10

CCCCCc1cc(O)c2c(c1)OC(C)(C)C1CCC(C)=CC21 (centres unmarked) [THC, Δ-9-tetrahydrocannabinol]
analgesic power relative to morphine [3]: ten times more powerful than morphine

CCNC(=O)CC[C@H](N)C(=O)O [Theanine]
dose considered safe and well-tolerated [4]: up to 400 mg per day

C=CCCCCCCCCC(=O)N[C@@H](Cc1ccccc1)C(=O)O [UP, Undecylenoyl phenylalanine]
time to skin lightening effects (skin [5]): ≥ 7 days

CC12CCC(CC1)C(C)(C)O2 [eucalyptol, 1,8-epoxy-p-menthane]
increase of transdermal drug uptake, factor (skin [2]): more than 10

CC[C@H](C)[C@H](NC(=O)[C@H](CC(=O)O)NC(=O)[C@@H](N)CCCCN)C(=O)N[C@@H](CCCNC(N)=O)C(N)=O [tripeptide-10 citrulline, Tripeptide-10 citrulline] (HELM PEPTIDE1{K.D.I.[Cit].[am]}$$$$V2.0)
improvement of suppleness (skin [6]): ≤ 54%

Cc1c(C)c2c(c(C)c1O)CC[C@@](C)(CCC[C@H](C)CCC[C@H](C)CCCC(C)C)O2 [α-tocopherol]
blood plasma concentration of F2-isoprostane (F2-isoprostane): significantly lower | relative biological activity [7]: 1.0 | reduction of risk of coronary disease [8]: up to 34% | reduction of risk of developing neurodegenerative diseases [9]: ≤ 24% | reduction in the development of age-related cataracts [10]: 23%

Cc1cc(O)c(C)c2c1O[C@](C)(CCC[C@H](C)CCC[C@H](C)CCCC(C)C)CC2 [β-tocopherol]
relative biological activity [7]: 0.5

Cc1c(O)cc2c(c1C)O[C@](C)(CCC[C@H](C)CCC[C@H](C)CCCC(C)C)CC2 [γ-tocopherol]
relative biological activity [7]: 0.1 | concentration in vivo relative to α-tocopherol [11]: roughly 10%

Cc1cc(O)cc2c1O[C@](C)(CCC[C@H](C)CCC[C@H](C)CCCC(C)C)CC2 [δ-tocopherol]
relative biological activity [7]: 0.03

HGH: hormone comprising a peptide chain synthesized in the pituitary gland
biological half-life [12]: 10-20 minutes
